# Results taken from paper PMC6390583 (BMC rheumatology, 2018).
# pIC50: −log10 of the molar value. Read-outs that look alike come from different tables or passages of the source.
# Tests used:
# [1] = tested on: Erythropoietin-induced STAT5 phosphorylation; assay: Erythropoietin-induced STAT5 phosphorylation in UT-7 cells; type: cell-based; conditions: Homo sapiens; UT7 cells, JAK 2; read-out: Human IC50, Epo pSTAT5
# Method: (§1) IL-6 and Oncostatin M (OSM) induced STAT3 phosphorylation was assessed in the human erythroleukemia TF-1 cell line. Erythropoietin-induced STAT5 phosphorylation was assessed in the human UT-7 cell line. IL-2 and IL-15 induced STAT5 phosphorylation was assessed in activated human T-cells. Detection of phosphorylated STATs was accomplished with the SureFire pSTAT5 or pSTAT3 Assay kit (Perkin Elmer, Hopkinton, MA) per standard manufacturer’s protocol, with the exception of an overnight incubation following addition of donor beads before detection on the EnVision (Perkin Elmer, Hopkinton, MA). IFNγ induced STAT1 phosphorylation was assessed in the CD14+ monocyte population in human PBMC by flow cytometry. CD14 BV421 was purchased from BD Biosciences (San Jose, CA). STAT1 PE ([…]) was purchased from ThermoFisher Scientific (Waltham, MA). IL-4 and IL-13 induced STAT6 phosphorylation and IL-31 induced STAT3 phosphorylation were assessed in adult human epithelial keratinocytes (HEKa, ThermoFisher Scientific, Waltham, MA) by flow cytometry. STAT6 PE (pY641) and STAT3 PE (Y705) were purchased from BD Biosciences (San Jose, CA).
# IL-7 driven pSTAT5 = assay: Clinical ex vivo IL-7 stimulation of whole blood, pSTAT5; type: in vivo; conditions: healthy volunteers, 12 mg of upadacitinib, 1 h post dose
# Method: (§2) Recombinant human IL-6 (400 ng/ml), or IL-7 (400 ng/ml), (R&D Systems, Minneapolis, MN) was added to blood and incubated for 10 min at 37°C. Surface antibodies were added (CD14-APC, CD3-fluorescein isothiocyanate [FITC]; BD Biosciences, San Jose, CA) and incubated on ice for an additional 20 min. Samples were lysed (Lyse/Fix, BD Biosciences, San Jose, CA) and incubated for 10 min at 37°C. Samples were washed and stored at − 70°C. For intracellular staining, samples were thawed, washed, and resuspended in BD Perm buffer III (BD Biosciences, San Jose, CA) on ice for 30 min. Samples were washed and stained with pSTAT5-PE or pSTAT3-PE (BD Biosciences, San Jose, CA) for 60 min at room temperature and then analyzed immediately on a FACSCalibur. Geometric means were determined using FlowJo analysis software.
# [2] = tested on: IL-6 induced STAT3 phosphorylation; assay: IL-6 induced STAT3 phosphorylation in TF-1 cells; type: cell-based; conditions: Homo sapiens, JAK 1, read-out: Human IC50, IL-6 pSTAT3
# Method: as §1
# [3] = tested on: Oncostatin M (OSM) induced STAT3 phosphorylation; assay: Oncostatin M induced STAT3 phosphorylation in TF-1 cells; type: cell-based; conditions: Homo sapiens, JAK 1, N = 2, read-out: Human IC50, OSM pSTAT3
# Method: as §1
# [4] = tested on: adjuvant induced arthritis; assay: Rat adjuvant-induced arthritis (AIA) model; type: in vivo
# PDGFRB = PDGFRB (Homo sapiens, UniProt P09619); assay: trFRET binding kinome profiling
# Method: (§3) JAK activity assays using isolated kinase domains in the presence of 0.1 mM ATP and trFRET kinome profiling were conducted as described previously (17).
# Akt1 = Akt1 (Homo sapiens, UniProt P31749); assay: trFRET binding kinome profiling
# Method: as §3
# Pim2 = Pim2 (Homo sapiens, UniProt Q9P1W9); assay: trFRET binding kinome profiling
# Method: as §3
# AMPK = assay: trFRET binding kinome profiling
# Method: as §3
# TYRO3 = TYRO3 (Homo sapiens, UniProt Q06418); assay: trFRET binding kinome profiling
# Method: as §3
# TNK2 = TNK2 (Homo sapiens, UniProt Q07912); assay: trFRET binding kinome profiling
# Method: as §3
# STK33 = STK33 (Homo sapiens, UniProt Q9BYT3); assay: trFRET binding kinome profiling
# Method: as §3
# Gsk3a = Gsk3a (Homo sapiens, UniProt P49840); assay: trFRET binding kinome profiling
# Method: as §3
# TBK1 = TBK1 (Homo sapiens, UniProt Q9UHD2); assay: trFRET binding kinome profiling
# Method: as §3
# [5] = tested on: IL-4 induced STAT6 phosphorylation; assay: IL-4 induced STAT6 phosphorylation in HEKa; type: cell-based; conditions: Homo sapiens, JAK 1/3, read-out: Human IC50, IL-4 pSTAT6
# Method: as §1
# [6] = tested on: CD3-/CD16+/CD56+ NK cells; assay: Circulating NK cell analysis after 14 days dosing; type: in vivo, rat
# Method: Blood was collected and stained using BD MultiTest IMK kit (BD Biosciences, San Jose, CA) per manufacturer’s instructions. NK cell numbers were determined by using FlowJo analysis software (FlowJo, LLC, Ashland, OR) and by examining the CD3^−/CD16^+/CD56^+ population. The number of cells/μL was calculated by using the following equation: (# events in cell population/# of events in absolute bead count region) × (# beads per test/test volume), with the value beads per test indicated on the BD Trucount tube label.
# [7] = tested on: IL-6 induced pSTAT3, CD14+ whole blood; assay: IL-6 signaling in human whole blood, CD14+ monocytic population; type: cell-based; conditions: JAK 1
# [8] = tested on: IL-2 induced STAT5 phosphorylation; assay: IL-2 induced STAT5 phosphorylation in activated T-cells; type: cell-based; conditions: T-blasts, JAK 1/3, read-out: Human IC50, IL-2 pSTAT5
# Method: as §1
# [9] = tested on: IL-13 induced STAT6 phosphorylation; assay: IL-13 induced STAT6 phosphorylation in HEKa; type: cell-based; conditions: Homo sapiens, JAK 1/TYK2, read-out: Human IC50, IL-13 pSTAT6
# Method: as §1
# [10] = tested on: IFNγ induced STAT1 phosphorylation; assay: IFNγ induced STAT1 phosphorylation in CD14+ monocytes of PBMC; type: cell-based; conditions: Homo sapiens, Monocyte, JAK 1/2, read-out: Human IC50, IFNγ pSTAT1
# Method: as §1
# JAK1 = JAK1 (Homo sapiens, UniProt P23458); assay: HTRF activity assay, recombinant JAK1 catalytic domain; conditions: JAK1 IC50 at varying ATP (0.01-1 mM), Cheng-Prusoff; data not shown
# [11] = tested on: IL-31 induced STAT3 phosphorylation; assay: IL-31 induced STAT3 phosphorylation in HEKa; type: cell-based; conditions: Homo sapiens, JAK 1/2, read-out: Human IC50, IL-31 pSTAT3
# Method: as §1
# IL-6 induced pSTAT3 = assay: Clinical ex vivo IL-6 stimulation of whole blood, pSTAT3; type: in vivo, healthy volunteers
# Method: as §2
# Gsk3a, sequence (P49840 whole entry, species assumed): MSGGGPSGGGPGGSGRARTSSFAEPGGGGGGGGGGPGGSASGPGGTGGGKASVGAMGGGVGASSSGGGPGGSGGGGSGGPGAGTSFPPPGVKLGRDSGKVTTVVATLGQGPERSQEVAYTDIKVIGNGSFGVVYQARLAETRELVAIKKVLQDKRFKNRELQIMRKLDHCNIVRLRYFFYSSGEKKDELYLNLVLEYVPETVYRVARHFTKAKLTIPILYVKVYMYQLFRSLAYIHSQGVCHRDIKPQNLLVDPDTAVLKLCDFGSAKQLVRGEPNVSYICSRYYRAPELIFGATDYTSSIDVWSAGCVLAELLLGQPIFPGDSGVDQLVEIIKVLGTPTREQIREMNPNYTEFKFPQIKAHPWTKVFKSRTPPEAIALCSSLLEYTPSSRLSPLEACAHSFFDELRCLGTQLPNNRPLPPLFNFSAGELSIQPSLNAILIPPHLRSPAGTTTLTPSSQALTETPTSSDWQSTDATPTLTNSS
# STK33, sequence (Q9BYT3 whole entry, species assumed): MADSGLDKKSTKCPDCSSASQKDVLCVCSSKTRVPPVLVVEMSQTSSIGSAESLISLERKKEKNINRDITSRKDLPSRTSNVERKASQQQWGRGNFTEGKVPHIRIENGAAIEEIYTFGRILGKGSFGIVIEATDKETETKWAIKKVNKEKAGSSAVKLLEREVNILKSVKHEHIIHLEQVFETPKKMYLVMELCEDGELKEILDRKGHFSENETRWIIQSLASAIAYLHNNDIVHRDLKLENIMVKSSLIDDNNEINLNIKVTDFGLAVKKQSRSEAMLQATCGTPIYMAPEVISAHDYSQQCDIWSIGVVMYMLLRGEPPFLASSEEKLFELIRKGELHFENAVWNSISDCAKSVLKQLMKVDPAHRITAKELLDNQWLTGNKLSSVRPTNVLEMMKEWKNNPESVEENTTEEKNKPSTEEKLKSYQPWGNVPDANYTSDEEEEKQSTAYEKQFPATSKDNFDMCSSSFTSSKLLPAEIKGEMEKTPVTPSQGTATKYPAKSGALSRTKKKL
# Pim2, sequence (Q9P1W9 whole entry, species assumed): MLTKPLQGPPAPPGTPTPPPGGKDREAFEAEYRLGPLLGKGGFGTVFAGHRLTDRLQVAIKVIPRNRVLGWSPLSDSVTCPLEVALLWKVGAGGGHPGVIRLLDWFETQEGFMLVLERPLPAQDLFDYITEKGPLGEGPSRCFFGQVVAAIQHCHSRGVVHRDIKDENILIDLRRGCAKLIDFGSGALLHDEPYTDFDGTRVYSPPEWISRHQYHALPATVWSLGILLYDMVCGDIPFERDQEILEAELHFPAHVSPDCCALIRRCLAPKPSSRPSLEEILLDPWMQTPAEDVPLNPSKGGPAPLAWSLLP
# PDGFRB, sequence (P09619 33-1106, species assumed): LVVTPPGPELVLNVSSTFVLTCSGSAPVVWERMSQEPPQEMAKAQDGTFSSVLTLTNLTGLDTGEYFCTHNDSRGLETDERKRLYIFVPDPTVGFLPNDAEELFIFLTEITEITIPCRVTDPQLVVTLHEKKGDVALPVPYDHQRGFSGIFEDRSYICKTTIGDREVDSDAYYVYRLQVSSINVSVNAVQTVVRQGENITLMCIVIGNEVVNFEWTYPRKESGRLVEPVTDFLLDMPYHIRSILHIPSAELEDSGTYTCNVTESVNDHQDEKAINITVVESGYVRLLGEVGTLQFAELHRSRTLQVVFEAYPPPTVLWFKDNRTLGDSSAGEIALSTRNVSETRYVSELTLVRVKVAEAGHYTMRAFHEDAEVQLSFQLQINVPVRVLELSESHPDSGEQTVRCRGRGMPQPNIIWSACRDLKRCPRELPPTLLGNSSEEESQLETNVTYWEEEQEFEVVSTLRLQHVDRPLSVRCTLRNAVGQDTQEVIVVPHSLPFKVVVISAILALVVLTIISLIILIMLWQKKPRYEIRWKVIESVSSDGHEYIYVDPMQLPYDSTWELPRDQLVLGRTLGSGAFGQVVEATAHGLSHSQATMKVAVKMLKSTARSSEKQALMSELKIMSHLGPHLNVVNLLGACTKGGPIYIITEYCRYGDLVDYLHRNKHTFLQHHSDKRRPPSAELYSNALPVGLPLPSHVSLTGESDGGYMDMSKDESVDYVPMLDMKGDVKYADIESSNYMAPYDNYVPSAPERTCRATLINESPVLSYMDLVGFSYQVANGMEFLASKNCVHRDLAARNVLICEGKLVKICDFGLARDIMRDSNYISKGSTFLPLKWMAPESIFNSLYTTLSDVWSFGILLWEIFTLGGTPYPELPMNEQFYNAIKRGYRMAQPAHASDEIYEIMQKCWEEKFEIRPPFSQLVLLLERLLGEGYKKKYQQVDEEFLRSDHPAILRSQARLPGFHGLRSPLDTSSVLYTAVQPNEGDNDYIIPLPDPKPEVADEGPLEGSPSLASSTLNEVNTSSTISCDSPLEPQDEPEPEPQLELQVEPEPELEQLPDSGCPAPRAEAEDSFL
# JAK1, sequence (P23458 845-1142): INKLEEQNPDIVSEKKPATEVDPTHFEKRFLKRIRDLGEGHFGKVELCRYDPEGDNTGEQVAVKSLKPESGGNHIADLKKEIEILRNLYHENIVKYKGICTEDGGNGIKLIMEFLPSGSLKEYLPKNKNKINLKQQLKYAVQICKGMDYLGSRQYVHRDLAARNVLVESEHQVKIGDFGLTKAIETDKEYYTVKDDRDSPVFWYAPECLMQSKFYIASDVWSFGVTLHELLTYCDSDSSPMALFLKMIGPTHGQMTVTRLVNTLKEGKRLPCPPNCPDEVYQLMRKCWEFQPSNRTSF
# TBK1, sequence (Q9UHD2 whole entry, species assumed): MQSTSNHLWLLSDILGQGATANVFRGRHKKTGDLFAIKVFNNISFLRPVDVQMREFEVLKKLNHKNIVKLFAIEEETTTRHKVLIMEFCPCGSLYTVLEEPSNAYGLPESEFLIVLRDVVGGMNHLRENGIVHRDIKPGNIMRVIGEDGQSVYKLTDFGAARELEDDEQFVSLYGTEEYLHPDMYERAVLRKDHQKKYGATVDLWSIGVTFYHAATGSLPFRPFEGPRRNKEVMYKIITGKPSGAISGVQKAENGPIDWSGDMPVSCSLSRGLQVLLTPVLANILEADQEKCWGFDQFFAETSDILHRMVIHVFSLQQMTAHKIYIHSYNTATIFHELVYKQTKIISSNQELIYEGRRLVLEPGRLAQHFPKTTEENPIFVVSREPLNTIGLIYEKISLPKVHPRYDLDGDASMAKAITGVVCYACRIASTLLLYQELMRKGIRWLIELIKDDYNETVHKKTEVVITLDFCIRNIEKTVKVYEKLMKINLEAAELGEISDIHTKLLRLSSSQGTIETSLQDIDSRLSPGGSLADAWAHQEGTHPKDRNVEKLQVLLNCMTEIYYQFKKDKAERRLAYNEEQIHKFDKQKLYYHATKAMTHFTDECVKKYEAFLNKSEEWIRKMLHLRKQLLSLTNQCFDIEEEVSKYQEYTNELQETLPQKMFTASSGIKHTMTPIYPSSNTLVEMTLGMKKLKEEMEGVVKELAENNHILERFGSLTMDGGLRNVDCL
# TNK2, sequence (Q07912 whole entry, species assumed): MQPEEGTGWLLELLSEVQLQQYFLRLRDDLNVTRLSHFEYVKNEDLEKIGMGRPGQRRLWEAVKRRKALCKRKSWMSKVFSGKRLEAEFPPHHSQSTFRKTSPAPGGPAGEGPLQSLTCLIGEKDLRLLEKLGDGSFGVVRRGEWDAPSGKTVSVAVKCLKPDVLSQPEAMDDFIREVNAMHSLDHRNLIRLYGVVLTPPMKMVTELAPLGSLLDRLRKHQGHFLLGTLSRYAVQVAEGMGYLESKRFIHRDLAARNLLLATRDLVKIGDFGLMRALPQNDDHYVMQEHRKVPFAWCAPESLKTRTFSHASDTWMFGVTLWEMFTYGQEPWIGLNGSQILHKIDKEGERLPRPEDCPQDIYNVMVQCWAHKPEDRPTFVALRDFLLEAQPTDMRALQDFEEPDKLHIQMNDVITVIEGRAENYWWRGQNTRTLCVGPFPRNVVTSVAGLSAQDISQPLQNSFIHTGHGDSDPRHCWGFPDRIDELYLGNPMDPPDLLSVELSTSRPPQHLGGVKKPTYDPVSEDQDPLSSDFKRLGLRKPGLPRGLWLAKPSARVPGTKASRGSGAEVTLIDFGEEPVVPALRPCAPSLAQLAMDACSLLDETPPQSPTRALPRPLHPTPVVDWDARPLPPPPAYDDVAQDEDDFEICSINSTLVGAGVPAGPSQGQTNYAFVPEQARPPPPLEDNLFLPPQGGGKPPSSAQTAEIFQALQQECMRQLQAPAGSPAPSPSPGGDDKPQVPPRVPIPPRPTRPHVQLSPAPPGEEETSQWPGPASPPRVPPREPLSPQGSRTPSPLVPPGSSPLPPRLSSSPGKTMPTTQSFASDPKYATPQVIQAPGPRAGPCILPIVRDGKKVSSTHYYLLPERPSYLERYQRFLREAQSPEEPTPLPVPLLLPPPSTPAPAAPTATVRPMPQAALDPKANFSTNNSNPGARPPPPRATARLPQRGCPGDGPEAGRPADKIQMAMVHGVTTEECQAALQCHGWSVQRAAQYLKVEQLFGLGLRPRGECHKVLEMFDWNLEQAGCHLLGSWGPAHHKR
# Akt1, sequence (P31749 whole entry, species assumed): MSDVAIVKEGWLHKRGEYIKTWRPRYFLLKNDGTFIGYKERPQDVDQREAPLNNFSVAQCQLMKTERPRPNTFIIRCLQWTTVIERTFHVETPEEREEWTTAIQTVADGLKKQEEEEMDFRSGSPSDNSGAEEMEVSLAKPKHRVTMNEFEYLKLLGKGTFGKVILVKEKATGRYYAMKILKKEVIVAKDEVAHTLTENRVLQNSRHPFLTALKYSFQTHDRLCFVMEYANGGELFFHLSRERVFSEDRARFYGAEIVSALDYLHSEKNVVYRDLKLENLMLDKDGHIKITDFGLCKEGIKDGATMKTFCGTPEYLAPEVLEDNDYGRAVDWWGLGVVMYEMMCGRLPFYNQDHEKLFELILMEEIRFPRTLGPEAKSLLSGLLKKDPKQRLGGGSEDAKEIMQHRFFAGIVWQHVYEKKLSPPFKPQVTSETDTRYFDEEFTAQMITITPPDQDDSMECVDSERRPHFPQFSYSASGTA
smiles,measurement,setting,value
"CC[C@@H]1CN(C(=O)NCC(F)(F)F)C[C@@H]1c1cnc2cnc3[nH]ccc3n12 [upadacitinib, (3S,4R)-3-ethyl-4-(3H-imidazo [1,2-a]pyrrolo [2,3-e]pyrazin-8-yl)-N-(2,2,2-trifluoroethyl) pyrrolidine-1-carboxamide]",pIC50,[1],6.19
same,Inhibition of IL-7 driven pSTAT5,IL-7 driven pSTAT5,~ 70%
same,pIC50,[2],7.96
same,pIC50,[3],8.80
same,Histological endpoints,"[4]; 3 and 10 mg/kg dose groups, data not shown","improved synovial hypertrophy, inflammation, cartilage damage and bone erosion"
same,Reduction in paw swelling at clinical AUC exposures,[4]; exposures for 6 mg BID and 12 mg BID clinical doses of upadacitinib,> 90%
same,"AUC60, AUC0-12 drug concentration necessary to achieve 60% inhibition of paw swelling",[4]; oral BID,83 ng·h/mL
same,Effect on paw swelling,"[4]; oral, dosed from day 7",dose and exposure dependent reductions in paw swelling
same,pIC50,PDGFRB,< 5.00
same,pIC50,Akt1,< 5.00
same,pIC50,Pim2,< 5.00
same,pIC50,AMPK,< 5.35
same,pIC50,TYRO3,< 5.00
same,pIC50,TNK2,5.29
same,pIC50,STK33,< 5.00
same,pIC50,Gsk3a,< 5.00
same,pIC50,TBK1,< 5.00
same,pIC50,[5],8.70
same,AUC60 for decrease of circulating NK cell numbers,[6]; naive rats dosed orally for 14 days,480 ng·h/mL
same,Decrease in circulating NK cells at AUC60,"[6]; rat, at AUC60 of paw swelling",25%
same,pIC50,[7],7.11
same,pIC50,"[8]; Homo sapiens, T-cell",7.89
same,pIC50,[8],8.00
same,pIC50,[9],8.40
same,pIC50,[10],7.72
same,Mechanism of JAK1 inhibition,JAK1,ATP competitive inhibitor
same,pIC50,[11],8.52
same,inhibition at 3 mg,"IL-6 induced pSTAT3; Homo sapiens, 1 h",~50%
same,Dose reaching maximal pSTAT3 inhibition,"IL-6 induced pSTAT3; healthy volunteers, IL-6 stimulation, 1 h post dose",36 mg
